In publication PMC7770057 (Journal of medicinal chemistry, 2020):
“Also recorded” adds a separate entry of the source.

Legend:
HT-29 cells = assay: Antiproliferation; conditions: for antiproliferation potency improvement over comparator: HT-29, 3 vs 14, 24 vs 3, 25 vs 22, 26 vs 3, 27 vs 23; for GI50: Homo sapiens, HT-29, 72 h, read-out: HT-29 GI50; for antiproliferation potency compared to compound 28: HT-29 cells
MEK1/2 = MEK1/2 protein levels in cells by Western blot; conditions: HT-29 cells, 0.3, 1 and 3 μM, 24 h
[1] = In vivo mouse PK study, single IP injection; parameters: species or system male Swiss Albino mice; conditions: mice, single IP 50 mg/kg; for tolerability: no clinical signs or adverse effects observed

Compound | MEK1/2 degradation (Western blot, words) (MEK1/2) | antiproliferation potency compared to compound 28 (HT-29 cells) | also measured
Cc1ncsc1-c1ccc([C@H](C)NC(=O)[C@@H]2C[C@@H](O)CN2C(=O)[C@@H](NC(=O)CCCCCCCCCCNCCCONC(=O)c2ccc(F)c(F)c2Nc2ccc(I)cc2F)C(C)(C)C)cc1 [Compound 3] |  |  | antiproliferation potency improvement over comparator (HT-29 cells): 3 fold
Cc1ncsc1-c1ccc(CNC(=O)[C@@H]2C[C@@H](O)CN2C(=O)[C@@H](NC(=O)CCCCCCCNCCCONC(=O)c2ccc(F)c(F)c2Nc2ccc(I)cc2F)C(C)(C)C)cc1 [Compound 11, (2S,4R)-1-((S)-17-(tert-Butyl)-1-(3,4-difluoro-2-((2-fluoro-4-iodophenyl)amino)phenyl)-1,15-dioxo-3-oxa-2,7,16-triazaoctadecan-18-oyl)-4-hydroxy-N-(4-(4-methylthiazol-5-yl)benzyl)pyrrolidine-2-carboxamide] | effectively degraded MEK1 and MEK2 proteins |  | 
Cc1ncsc1-c1ccc(CNC(=O)[C@@H]2C[C@@H](O)CN2C(=O)[C@@H](NC(=O)CCCCCCCCCNCCCONC(=O)c2ccc(F)c(F)c2Nc2ccc(I)cc2F)C(C)(C)C)cc1 [Compound 13, (2S,4R)-1-((S)-19-(tert-Butyl)-1-(3,4-difluoro-2-((2-fluoro-4-iodophenyl)amino)phenyl)-1,17-dioxo-3-oxa-2,7,18-triazaicosan-20-oyl)-4-hydroxy-N-(4-(4-methylthiazol-5-yl)benzyl)pyrrolidine-2-carboxamide] | effectively degraded MEK1 and MEK2 proteins |  | 
Cc1ncsc1-c1ccc([C@H](C)NC(=O)[C@@H]2C[C@@H](O)CN2C(=O)[C@@H](NC(=O)CCCCCCCCCCN(C)CCCONC(=O)c2ccc(F)c(F)c2Nc2ccc(I)cc2F)C(C)(C)C)cc1 [Compound 24, (2S,4R)-1-((S)-20-(tert-Butyl)-1-(3,4-difluoro-2-((2-fluoro-4-iodophenyl)amino)phenyl)-7-methyl-1,18-dioxo-3-oxa-2,7,19-triazahenicosan-21-oyl)-4-hydroxy-N-((S)-1-(4-(4-methylthiazol-5-yl)phenyl)ethyl)pyrrolidine-2-carboxamide] |  |  | tolerability [1]: very well tolerated
Cc1ncsc1-c1ccc([C@H](C)NC(=O)[C@@H]2C[C@@H](O)CN2C(=O)[C@@H](NC(=O)CCCCCCCCCNCCCCONC(=O)c2ccc(F)c(F)c2Nc2ccc(I)cc2F)C(C)(C)C)cc1 [Compound 25, (2S,4R)-1-((S)-20-(tert-Butyl)-1-(3,4-difluoro-2-((2-fluoro-4-iodophenyl)amino)phenyl)-1,18-dioxo-3-oxa-2,8,19-triazahenicosan-21-oyl)-4-hydroxy-N-((S)-1-(4-(4-methylthiazol-5-yl)phenyl)ethyl)pyrrolidine-2-carboxamide] |  |  | antiproliferation potency improvement over comparator (HT-29 cells): about 4 fold
Cc1ncsc1-c1ccc([C@H](C)NC(=O)[C@@H]2C[C@@H](O)CN2C(=O)[C@@H](NC(=O)CCCCCCCCCCNCCCCONC(=O)c2ccc(F)c(F)c2Nc2ccc(I)cc2F)C(C)(C)C)cc1 [Compound 26, (2S,4R)-1-((S)-21-(tert-Butyl)-1-(3,4-difluoro-2-((2-fluoro-4-iodophenyl)amino)phenyl)-1,19-dioxo-3-oxa-2,8,20-triazadocosan-22-oyl)-4-hydroxy-N-((S)-1-(4-(4-methylthiazol-5-yl)phenyl)ethyl)pyrrolidine-2-carboxamide] |  |  | antiproliferation potency improvement over comparator (HT-29 cells): ~3 fold
Cc1ncsc1-c1ccc([C@H](C)NC(=O)[C@@H]2C[C@@H](O)CN2C(=O)[C@@H](NC(=O)CCCCCCCCCCCNCCCCONC(=O)c2ccc(F)c(F)c2Nc2ccc(I)cc2F)C(C)(C)C)cc1 [Compound 27, (2S,4R)-1-((S)-22-(tert-Butyl)-1-(3,4-difluoro-2-((2-fluoro-4-iodophenyl)amino)phenyl)-1,20-dioxo-3-oxa-2,8,21-triazatricosan-23-oyl)-4-hydroxy-N-((S)-1-(4-(4-methylthiazol-5-yl)phenyl)ethyl)pyrrolidine-2-carboxamide] |  |  | clearance comparison [1]: cleared more slowly than compound 24; plasma exposure comparison ([1]; 8 h period, 50 mg/kg): better plasma exposure than compound 24; also recorded: higher than that of the previously published MEK degrader 3; tolerability [1]: very well tolerated
O=C1CCC(N2C(=O)c3cccc(NCCNCCCONC(=O)c4ccc(F)c(F)c4Nc4ccc(I)cc4F)c3C2=O)C(=O)N1 (centres unmarked) [Compound 28, N-(3-((2-((2-(2,6-Dioxopiperidin-3-yl)-1,3-dioxoisoindolin-4-yl)-amino)ethyl)amino)propoxy)-3,4-difluoro-2-((2-fluoro-4-iodophenyl)amino)benzamide] | did not show obvious MEK1/2 degradation |  | GI50 (HT-29 cells): 300 to 500 nM
O=C1CCC(N2C(=O)c3cccc(NCCCNCCCONC(=O)c4ccc(F)c(F)c4Nc4ccc(I)cc4F)c3C2=O)C(=O)N1 (centres unmarked) [Compound 29, N-(3-((3-((2-(2,6-Dioxopiperidin-3-yl)-1,3-dioxoisoindolin-4-yl)-amino)propyl)amino)propoxy)-3,4-difluoro-2-((2-fluoro-4-iodophenyl)amino)benzamide] |  | did not improve the antiproliferation potency | 
O=C1CCC(N2C(=O)c3cccc(NCCCCNCCCONC(=O)c4ccc(F)c(F)c4Nc4ccc(I)cc4F)c3C2=O)C(=O)N1 (centres unmarked) [Compound 30, N-(3-((4-((2-(2,6-Dioxopiperidin-3-yl)-1,3-dioxoisoindolin-4-yl)-amino)butyl)amino)propoxy)-3,4-difluoro-2-((2-fluoro-4-iodophenyl)amino)benzamide] |  | did not improve the antiproliferation potency | 
O=C1CCC(N2C(=O)c3cccc(NCCCCCNCCCONC(=O)c4ccc(F)c(F)c4Nc4ccc(I)cc4F)c3C2=O)C(=O)N1 (centres unmarked) [Compound 31, N-(3-((5-((2-(2,6-Dioxopiperidin-3-yl)-1,3-dioxoisoindolin-4-yl)-amino)pentyl)amino)propoxy)-3,4-difluoro-2-((2-fluoro-4-iodophenyl)amino)benzamide] |  | did not improve the antiproliferation potency | 
O=C1CCC(N2C(=O)c3cccc(NCCCCCCNCCCONC(=O)c4ccc(F)c(F)c4Nc4ccc(I)cc4F)c3C2=O)C(=O)N1 (centres unmarked) [Compound 32, N-(3-((6-((2-(2,6-Dioxopiperidin-3-yl)-1,3-dioxoisoindolin-4-yl)-amino)hexyl)amino)propoxy)-3,4-difluoro-2-((2-fluoro-4-iodophenyl)amino)benzamide] |  | did not improve the antiproliferation potency | 
O=C1CCC(N2C(=O)c3cccc(NCCCCCCCNCCCONC(=O)c4ccc(F)c(F)c4Nc4ccc(I)cc4F)c3C2=O)C(=O)N1 (centres unmarked) [Compound 33, N-(3-((7-((2-(2,6-Dioxopiperidin-3-yl)-1,3-dioxoisoindolin-4-yl)-amino)heptyl)amino)propoxy)-3,4-difluoro-2-((2-fluoro-4-iodophenyl)amino)benzamide] |  | did not improve the antiproliferation potency | 
O=C1CCC(N2C(=O)c3cccc(NCCCCCCCCNCCCONC(=O)c4ccc(F)c(F)c4Nc4ccc(I)cc4F)c3C2=O)C(=O)N1 (centres unmarked) [Compound 34, N-(3-((8-((2-(2,6-Dioxopiperidin-3-yl)-1,3-dioxoisoindolin-4-yl)-amino)octyl)amino)propoxy)-3,4-difluoro-2-((2-fluoro-4-iodophenyl)amino)benzamide] |  | did not improve the antiproliferation potency | 
O=C1CCC(N2C(=O)c3ccc(NCCCNCCCONC(=O)c4ccc(F)c(F)c4Nc4ccc(I)cc4F)cc3C2=O)C(=O)N1 (centres unmarked) [Compound 40, N-(3-((3-((2-(2,6-Dioxopiperidin-3-yl)-1,3-dioxoisoindolin-5-yl)amino)propyl)amino)propoxy)-3,4-difluoro-2-((2-fluoro-4-iodophenyl)amino)benzamide] | did not show obvious MEK1/2 degradation |  | GI50 (HT-29 cells): 300 to 500 nM
O=C1CCC(N2C(=O)c3ccc(NCCCCCNCCCONC(=O)c4ccc(F)c(F)c4Nc4ccc(I)cc4F)cc3C2=O)C(=O)N1 (centres unmarked) [Compound 42, N-(3-((5-((2-(2,6-Dioxopiperidin-3-yl)-1,3-dioxoisoindolin-5-yl)amino)pentyl)amino)propoxy)-3,4-difluoro-2-((2-fluoro-4-iodophenyl)amino)benzamide] | significant selectivity at degrading MEK2 over MEK1 |  | GI50 (HT-29 cells): 300 to 500 nM
O=C1CCC(N2C(=O)c3ccc(NCCCCCCCNCCCONC(=O)c4ccc(F)c(F)c4Nc4ccc(I)cc4F)cc3C2=O)C(=O)N1 (centres unmarked) [Compound 44, N-(3-((7-((2-(2,6-Dioxopiperidin-3-yl)-1,3-dioxoisoindolin-5-yl)amino)heptyl)amino)propoxy)-3,4-difluoro-2-((2-fluoro-4-iodophenyl)amino)benzamide] | significantly degraded both MEK1 and MEK2 proteins |  | GI50 (HT-29 cells): 300 to 500 nM
O=C1CCC(N2C(=O)c3ccc(NCCCCCCCCNCCCONC(=O)c4ccc(F)c(F)c4Nc4ccc(I)cc4F)cc3C2=O)C(=O)N1 (centres unmarked) [Compound 45, N-(3-((8-((2-(2,6-Dioxopiperidin-3-yl)-1,3-dioxoisoindolin-5-yl)amino)octyl)amino)propoxy)-3,4-difluoro-2-((2-fluoro-4-iodophenyl)amino)benzamide] | significantly degraded both MEK1 and MEK2 proteins |  | 
O=C1CCC(N2C(=O)c3ccc(NCCOCCOCCOCCOCCNCCCONC(=O)c4ccc(F)c(F)c4Nc4ccc(I)cc4F)cc3C2=O)C(=O)N1 (centres unmarked) [Compound 49, N-((1-((2-(2,6-Dioxopiperidin-3-yl)-1,3-dioxoisoindolin-5-yl)amino)-3,6,9,12-tetraoxa-15-azaoctadecan-18-yl)oxy)-3,4-di-fluoro-2-((2-fluoro-4-iodophenyl)amino)benzamide] | significantly degraded both MEK1 and MEK2 proteins |  | GI50 (HT-29 cells): 300 to 500 nM
